Assay results published in article PMC7352759, “S(+)-(2E)-N-(2-Hydroxypropyl)-3-Phenylprop-2-Enamide (KM-568): A Novel Cinnamamide Derivative with Anticonvulsant Activity in Animal Models of Seizures and Epilepsy” (International Journal of Molecular Sciences, 2020).

Assays:
[1] = Ames microplate format (MPF) assay, TA98; settings: Salmonella typhimurium
Excerpt: (§1) The Ames microplate format (MPF) mutagenicity assay (Xenometrix, Allschwil, Switzerland) was used to test KM-568 mutagenicity. Growth, exposure, and indicator media, positive control chemicals, and four Salmonella typhimurium strains TA98, TA100, TA1535 and TA1537 were included in the kit. TA100 and TA1535 strains detect base substitution mutations, whereas TA98 and TA1537 indicate frameshift mutations. The strains of bacteria included in a kit are in compliance with the Organization for Economic Cooperation and Development (OECD) 471 Guideline for Testing of Chemicals.
(§2) The assay is a liquid microplate modification of the traditional Salmonella test. During the procedure, bacteria are exposed to different concentrations of a test compound for 90 min in a medium containing sufficient histidine to support cell divisions. Then, the cultures are diluted in a pH indicator medium lacking histidine and aliquoted into 48 wells of a 384-well plate. Within 2 days, bacteria that have undergone reversion to amino acid prototrophy will form colonies. Products of bacteria metabolism reduce pH of the medium, changing the color of wells from purple to yellow.
(§3) The test procedure provided by Xenometrix and described in detail elsewhere was followed. Bacterial strains were grown overnight (14–16 h) in exposure medium in a shaker incubator and then exposed to KM-568 in 24-well plates for 90 min at 37 °C with agitation. Final KM-568 concentrations in the assay were 0.1, 0.2, and 0.5 mM. After preincubation, the cultures were diluted in the indicator medium and the contents of each 24-well culture were transferred to 48 wells on a 384-well plate and incubated further for 48 h at 37 °C without agitation. After the exposure, the number of wells containing bacteria was scored for yellow wells. […] Pure DMSO was used as a negative control. All doses were performed in triplicate.
(§4) The fold increase of revertants relative to the solvent control was determined by dividing the mean number of positive wells at each dose by the solvent control at baseline. The solvent control at baseline was calculated as the mean number of positive wells in the solvent control plus one standard deviation (SD). When an increase of more than twofold relative to the baseline at more than one dose with a dose–response was observed, the sample was classified as positive, whereas when no response > 2 times the baseline and no dose–response was stated, the sample was classified as negative.

[2] = Ames microplate format (MPF) assay, TA1537; settings: Salmonella typhimurium
Excerpt: as §1, §2, §3, §4

[3] = tested on: Salmonella typhimurium TA1535; assay: Ames microplate format (MPF) assay, TA1535; settings: TA1535, positive control at 100 µg/mL
Excerpt: as §1, §2, §3, §4

mice [4] = settings: mice i.p.; cited from earlier work
mice [5] = settings: mice i.p.; cited from earlier work; remark: listed apart in the source
rats = tested on: rats; design: method as in doi:10.2174/157018012798192982; settings: rats p.o.; cited from earlier work

Compound	scMET ED50 (mice [4]) [mg/kg]	MES ED50 (mice [5]) [mg/kg]	also measured
O=[N+]([O-])c1ccc2c(c1)Cc1ccccc1-2 [2-NF, 2-nitrofluorene, reference compound]	–	–	fold induction at 90 min, 2 µg/mL [1]: 6.4
Nc1c2ccccc2nc2ccccc12 [9-AAc, 9-aminoacridine, reference compound]	–	–	fold induction at 90 min, 15 µg/mL [2]: 48
NNc1ccn([C@@H]2O[C@H](CO)[C@@H](O)[C@H]2O)c(=O)n1 [N4-ACT, N-4-aminocytidine, reference compound]	–	–	fold induction of the number of positive wells over baseline [3]: 14.7 fold
O=C(/C=C/c1ccccc1)N1CCCC(O)C1 (stereo not drawn) [R,S-(2E)-1-(3-hydroxypiperidin-1-yl)-3-phenylprop-2-en-1-one]	82.3	55.0	–
CC(O)CNC(=O)/C=C/c1ccc(Cl)cc1 (stereo not drawn) [R,S-(2E)-3-(4-chlorophenyl)-N-(2-hydroxypropyl)prop-2-enamide]	102.2	55.6	–
CC(O)CNC(=O)/C=C/c1ccccc1 (stereo not drawn) [R,S-(2E)-N-(2-hydroxypropyl)-3-phenylprop-2-enamide]	–	–	scMET (pharmacological parameter, ED50) (mice [4]): 77.1 mg/kg; MES (pharmacological parameter, ED50) (rats): 22.8 mg/kg; MES (pharmacological parameter, ED50) (mice [5]): 47.1 mg/kg
Cc1ccccc1/C=C/C(=O)N[C@@H](C)CO [S-(2E)-N-(1-hydroxypropan-2-yl)-3-(2-methylphenyl)prop-2-enamide]	58.4	42.6	–
